The results in this text go back to patent US20090149584A1, “USE OF HEXAHYDROPHTHALIMIDE COMBINATIONS AS SOFTENER” (priority 2006, published 2009).

Common to all, as to assay type: physicochemical
The nature of series [1]: Solution temperature for PVC in accordance with DIN 53408. The source says:
A particularly important factor for the use of plasticizers is their gelling performance for PVC. Gelling performance is the capability of a plasticizer to penetrate into the polymeric structure of the PVC and to bring about a plasticizing effect by reducing the level of interaction between the polymer chains. A measure of the gelling performance of a plasticizer is the solution temperature for PVC, determined to DIN 53408. The lower the solution temperature, the better the gelling performance. Better gelling performance or lower solution temperature of the plasticizer means that lower processing temperatures can be selected in the production of flexible PVC. Lower temperatures save energy and time.
(§1) In accordance with DIN 53408, the solution temperatures of N-2-ethylhexylhexahydrophthalimide were measured for PVC. For comparison, the solution temperatures of the known plasticizers di(2-ethylhexyl) phthalate and diisobutyl phthalate were determined. Vapor pressure measurements were carried out in accordance with annex A4 to European Commission specification 92/69/ECC, OECD test specification 104 and, respectively, EPA test specification OPPTS 830.7950. The following table compares the results.

Another series is described as follows: Boiling point.
Series [2] in a line: Vapor pressure measurement (annex A4 to 92/69/ECC, OECD 104, EPA OPPTS 830.7950). As for the experimental part: as §1

Regarding N-2-ethylhexylhexahydrophthalimide, in series [1], the “Solution temperature for PVC” value amounted to 99 °C.

Regarding `CCCCC(CC)COC(=O)c1ccccc1C(=O)OCC(CC)CCCC` (stereo not shown) [Di(2-ethylhexyl) phthalate, di(2-ethylhexyl) phthalate], the Boiling point in “Boiling point” worked out at 384 °C. Besides, the Vapor pressure was found to be 0.04 hPa in series [2] (140° C.), 0.17 hPa in series [2] (160° C.), 0.58 hPa in series [2] (180° C.) and 1.80 hPa in series [2] (200° C.). Moreover, the “Solution temperature for PVC” value in series [1] came to 124 °C.

`CC(C)COC(=O)c1ccccc1C(=O)OCC(C)C` [Diisobutyl phthalate, diisobutyl phthalate]: the Boiling point in “Boiling point” is 295 °C. Further, the Vapor pressure is on record as 1.50 hPa in series [2] (140° C.), 4.20 hPa in series [2] (160° C.), 10.70 hPa in series [2] (180° C.) and 24.40 hPa in series [2] (200° C.). The “Solution temperature for PVC” value in series [1] is 99 °C.
